According to US20230293535A1, “ERBB/BTK INHIBITORS” (Dizal (Jiangsu) Pharmaceutical Co., Ltd., priority 2018, published 2023):
Marks after values point to notes of the source that are not given here.

What was measured:
[1] = test system: NSCLC with EGFR Exon20ins; test: Anti-tumor activity in platinum-pretreated NSCLC patients with EGFR Exon20 insertion mutations; format: in vivo, human
Text: Compound 52 is a rationally designed, oral, EGFR Exon20 insertion (Exon20ins) inhibitor, with wild-type EGFR selectivity. […] Compound 52 is currently in late stage development with multiple pivotal studies ongoing globally as ≥ 2nd line treatment after platinum-containing chemotherapies and 1st line for treatment naive patients. Results from multicenter, multi-arm, global studies are presented herein.
A total of 119 evaluable platinum-pretreated NSCLC patients with EGFR Exon20ins were included in efficacy set.

Ri-1 cells = test: BTK (wt) cell proliferation, Ri-1 (CellTiter-Glo, 72 h); format: cell-based; conditions: Ri-1, 72 h, Ri-1 cells, 72 h, CellTiter-Glo; read-out: BTK WT Ri-1 GI50;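 also: viable cells quantified as cellular ATP luminescence, proliferation normalized to a time-zero plate and the DMSO control, compounds tested across a dilution series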
[2] = test system: NSCLC with EGFR sensitizing, double or uncommon mutation; test: Anti-tumor activity in NSCLC patients with EGFR mutation beyond Exon20ins; format: in vivo, human; conditions: 50-400 mg once daily oral
Procedure: Compound 52 was explored at 50 mg, 100 mg, 200 mg, 300 mg and 400 mg once daily with oral administration in 12 non-small cell lung cancer (NSCLC) patients with EGFR sensitizing mutation (L858R or 19del), sensitizing (L858R or 19del) and T790M double mutation (double mutation) or less common non-resistant mutation (uncommon mutation, including Gly719Xaa, Leu861Gln, or Ser768Ile mutation). […] In 2 patients with uncommon mutation, 1 SD and 1 PD was observed after Compound 52 treatment.

EGFR L858R&T790M = biological target: T1, EGFR L858R&T790M (Homo sapiens, UniProt P00533, L858R/T790M); test: EGFR L858R and T790M cellular phosphorylation inhibition in NCI-H1975 (MSD); format: cell-based; conditions: NCI-H1975 cells, 4 h compound, p-EGFR(Y1068)/total EGFR; read-out: EGFR L858R and T790M mutation IC50;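 also: phosphorylated and total EGFR detected by electrochemiluminescence, cells exposed to compound in medium containing 1% FBS at 37 °C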
T1 construct: host or cells: NCI-H1975

Ba/F3 EGFR ASV ins cells = test: Cell proliferation, Ba/F3 EGFR ASV ins (CellTiter-Glo, 72 h); format: cell-based; conditions: Ba/F3 EGFR, 72 h, Ba/F3 EGFR ASV ins, 72 h proliferation; read-out: EGFR Exon20 ASV insertion GI50;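 also: IL3-independent Ba/F3 cells transduced with EGFR V769_D770insASV, cellular ATP luminescence after compound exposure, growth relative to DMSO control with the day-0 baseline reading subtracted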
[3] = test system: NSCLC with EGFR Exon20ins; test: Anti-tumor activity in platinum-pretreated NSCLC patients with EGFR Exon20 insertion mutations; format: in vivo, human; remark: listed apart in the source
[4] = test system: Her2 exon 20 insertion YVMA transduced NIH-3T3 cell line; test: Cell proliferation, Her2 YVMAins NIH-3T3 (CellTiter-Glo, 72 h); format: cell-based; conditions: Mus musculus, NIH3T3, 72 h, Her2 YVMAins cells, 72 h proliferation; read-out: Her2 Exon 20 YVMA insertion GI50;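 also: viable cells quantified by ATP luminescence, growth over a day-zero baseline plate expressed as percent of DMSO control growth, compound dilution series in 10% FBS medium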
[5] = test system: NCI-H1975 EGFR L858R/T790M cells; test: Cell proliferation, NCI-H1975 EGFR L858R/T790M (CellTiter-Glo, 72 h); format: cell-based; conditions: Homo sapiens, NCI-H1975, 72 h, NCI-H1975, 72 h proliferation; read-out: EGFR L858R and T790M mutation GI50;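 also: viable cells quantified by luciferase-based ATP luminescence, proliferation expressed relative to DMSO-treated wells (100%) after subtracting a parallel plate read at the time of dosing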
[6] = biological target: T2, human EGFR exon 20 V769_D770insASV (Homo sapiens, UniProt P00533, INS769ASV); test: EGFR Exon20 ASV insertion cellular phosphorylation inhibition (MSD pEGFR Y1068/total EGFR); format: cell-based; conditions: Ba/F3 EGFR ASV ins cells, 4 h compound, p-EGFR(Y1068)/total EGFR;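 also: electrochemiluminescent readout on an MSD SECTOR Imager, IL3-independent transduced cells in medium with 1% FBS, compound concentration series at 37 °C and 5% CO2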
T2 construct: expressed in transfected cells; host or cells: Ba/F3 (DSMZ ACC-300), lentiviral transduction, puromycin selection, IL3 depletion
Procedure: To generate the EGFR exon 20 V769_D770insASV transduced Ba/F3 cell line, the parental Ba/F3 cells were infected with the recombinant EGFR V769_D770insASV lentivirus and then followed by 1 µg/ml of puromycin selection and IL3 depletion. The resulting cell line expresses constitutively phosphorylated EGFR protein and proliferates in the absence of IL3, which could be used for in vitro PD and anti-proliferation assays.
One day before the test, WT or mutant cells were seeded in 96 well plates at appropriate concentrations with corresponding growth media supplemented with 1% FBS, and incubated overnight. The next day, tested compounds at a series of concentrations were added into each individual well of the plates, and the plates were incubated for 4 h at 37° C. with 5% CO2.
The EGFR (Y1068) phosphorylation level (activity) of cells in each well were then measured with MSD kit named “MULTI-SPOT®96 4-Spot HB Prototype EGFR Triplex [sequence]: pEGFR(Tyr1068),pEGFR(Tyr1173), Total EGFR” according to the manufacturer’s instruction (MESO SCALE DISCOVERY, Cat# N45ZB-1). The assay is an electrochemiluminescent method for determining both phosphorylated and total EGFR of cells with an MSD SECTOR® Imager and the ratio of p-EGFR/total EGFR can be generated by the machine. The Her2 (Y1248) phosphorylation level (activity) of cells in each well were measured with MSD Kit named “Phospho-ErbB2 (Tyr1248) Assay Whole Cell Lysate Kit” according to the manufacturer’s instruction (MESO SCALE DISCOVERY, Cat# K151CLD-3). The assay is an electrochemiluminescent method (MESO SCALE DISCOVERY) for determining both phosphorylated and total Her2 of cells with an MSD SECTOR® Imager and then the ratio of p-Her2/total Her2 can be generated by the machine.

[7] = biological target: T3, human Her2 exon 20 insertion mutation YVMA (Homo sapiens, UniProt P04626, INS775YVMA); test: Her2 Exon 20 YVMA insertion cellular phosphorylation inhibition (MSD p-Her2 Y1248/total Her2); format: cell-based; conditions: Her2 YVMAins cells, 4 h compound;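 also: lentivirally transduced NIH-3T3 cells in 1% FBS medium, electrochemiluminescent MSD read-out, graded compound concentrations at 37 °C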
T3 construct: expressed in transfected cells; host or cells: NIH-3T3, lentiviral transduction, puromycin selection

WT EGFR cell line A-431 = test: Cell proliferation, WT EGFR A431 (CellTiter-Glo, 72 h); format: cell-based; conditions: Homo sapiens, A-431, 72 h, A431, 72 h proliferation; read-out: EGFR WT A431 GI50;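 also: proliferation from a luminescent ATP viability signal, expressed as 100 × (treated minus time-zero plate) over (DMSO control minus time-zero plate), cells grown with 10% FBS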
[8] = biological target: T4, human EGFR exon 20 H773_V774insNPH (Homo sapiens, UniProt P00533, INS773NPH); test: EGFR Exon20 NPH insertion cellular phosphorylation inhibition (MSD pEGFR Y1068/total EGFR); format: cell-based; conditions: Ba/F3 EGFR NPH ins cells, 4 h compound, p-EGFR(Y1068)/total EGFR;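 also: IL3-independent Ba/F3 cells with constitutively phosphorylated EGFR, compound exposure at 37 °C under 5% CO2, electrochemiluminescent MSD measurement of the p-EGFR to total EGFR ratio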
T4 construct: host or cells: Ba/F3

OCI-LY-10 cells = test: BTK (wt) cell proliferation, OCI-LY-10 (CellTiter-Glo, 72 h); format: cell-based; conditions: Homo sapiens, OCI-Ly10, 72 h, OCI-LY-10 cells, 72 h, CellTiter-Glo; read-out: BTK WT OCI-LY-10 GI50;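 also: viable cells quantified via cellular ATP luminescence, proliferation given as percent of DMSO control after subtracting a duplicate plate read at time of dosing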
[9] = In vitro human hepatocytes clearance assay; conditions: both, human, cryopreserved human hepatocytes (suspension), human hepatocytes Clint (µL/min/10^6cells), mixed gender human hepatocytes, incubation up to 100 min
BTK = BTK (Homo sapiens, UniProt Q06187); test: BTK target site occupancy ELISA (PBMC); format: cell-based; conditions: BTK receptor occupancy
DB cells = test: BTK (wt) cell proliferation, DB (CellTiter-Glo, 72 h); format: cell-based; conditions: Homo sapiens, DB, DB cells, CellTiter-Glo, read-out: Non-BCR activated DB GI50;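 also: DB cells in 384-well plates given a dilution series of compound, viable cells read by ATP luminescence, growth expressed versus DMSO control after subtracting a time-zero plate reading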
[10] = 50 mg (N = 3), post platinum-based chemotherapy
[11] = 100 mg (N = 2), post platinum-based chemotherapy
[12] = 200 mg (N = 21), post platinum-based chemotherapy
[13] = 300 mg (N = 84), post platinum-based chemotherapy
[14] = 400 mg (N = 9), post platinum-based chemotherapy
[15] = Total (N = 119), post platinum-based chemotherapy
[16] = 2 patients with uncommon mutation
[17] = 4 NSCLC patients with EGFR sensitizing mutation
[18] = 5 NSCLC patients with EGFR double mutation

T1 sequence (P00533 25-1210 T790M/L858R): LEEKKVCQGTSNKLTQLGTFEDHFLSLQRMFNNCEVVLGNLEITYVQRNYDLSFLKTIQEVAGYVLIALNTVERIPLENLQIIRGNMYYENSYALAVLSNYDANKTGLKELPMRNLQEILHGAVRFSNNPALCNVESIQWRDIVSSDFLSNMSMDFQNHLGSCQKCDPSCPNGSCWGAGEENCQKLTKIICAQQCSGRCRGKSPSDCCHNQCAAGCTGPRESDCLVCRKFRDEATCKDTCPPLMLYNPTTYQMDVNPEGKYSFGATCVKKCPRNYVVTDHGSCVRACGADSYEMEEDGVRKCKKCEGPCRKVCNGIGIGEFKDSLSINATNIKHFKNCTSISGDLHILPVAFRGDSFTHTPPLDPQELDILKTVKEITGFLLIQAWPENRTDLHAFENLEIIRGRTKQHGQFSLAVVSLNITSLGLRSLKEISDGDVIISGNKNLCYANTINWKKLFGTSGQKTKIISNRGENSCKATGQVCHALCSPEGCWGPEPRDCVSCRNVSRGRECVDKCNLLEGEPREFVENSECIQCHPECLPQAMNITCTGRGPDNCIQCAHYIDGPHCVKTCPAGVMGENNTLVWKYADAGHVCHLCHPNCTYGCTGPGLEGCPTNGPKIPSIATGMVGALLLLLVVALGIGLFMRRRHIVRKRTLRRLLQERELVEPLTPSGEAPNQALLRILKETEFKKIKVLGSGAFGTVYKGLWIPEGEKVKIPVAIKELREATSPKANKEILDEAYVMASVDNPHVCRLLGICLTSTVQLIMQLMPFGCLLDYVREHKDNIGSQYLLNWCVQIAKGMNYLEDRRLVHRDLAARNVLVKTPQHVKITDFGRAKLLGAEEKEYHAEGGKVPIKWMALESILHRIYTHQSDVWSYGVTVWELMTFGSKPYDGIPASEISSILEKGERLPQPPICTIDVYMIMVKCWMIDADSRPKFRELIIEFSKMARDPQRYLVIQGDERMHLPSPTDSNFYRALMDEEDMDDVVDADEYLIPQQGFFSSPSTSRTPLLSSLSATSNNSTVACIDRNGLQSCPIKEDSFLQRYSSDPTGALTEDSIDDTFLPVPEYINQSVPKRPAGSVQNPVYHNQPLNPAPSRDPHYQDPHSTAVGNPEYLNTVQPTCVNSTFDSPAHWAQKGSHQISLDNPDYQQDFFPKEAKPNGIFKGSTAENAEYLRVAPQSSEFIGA
T4 sequence (P00533 with tags, fused parts or gaps INS773NPH): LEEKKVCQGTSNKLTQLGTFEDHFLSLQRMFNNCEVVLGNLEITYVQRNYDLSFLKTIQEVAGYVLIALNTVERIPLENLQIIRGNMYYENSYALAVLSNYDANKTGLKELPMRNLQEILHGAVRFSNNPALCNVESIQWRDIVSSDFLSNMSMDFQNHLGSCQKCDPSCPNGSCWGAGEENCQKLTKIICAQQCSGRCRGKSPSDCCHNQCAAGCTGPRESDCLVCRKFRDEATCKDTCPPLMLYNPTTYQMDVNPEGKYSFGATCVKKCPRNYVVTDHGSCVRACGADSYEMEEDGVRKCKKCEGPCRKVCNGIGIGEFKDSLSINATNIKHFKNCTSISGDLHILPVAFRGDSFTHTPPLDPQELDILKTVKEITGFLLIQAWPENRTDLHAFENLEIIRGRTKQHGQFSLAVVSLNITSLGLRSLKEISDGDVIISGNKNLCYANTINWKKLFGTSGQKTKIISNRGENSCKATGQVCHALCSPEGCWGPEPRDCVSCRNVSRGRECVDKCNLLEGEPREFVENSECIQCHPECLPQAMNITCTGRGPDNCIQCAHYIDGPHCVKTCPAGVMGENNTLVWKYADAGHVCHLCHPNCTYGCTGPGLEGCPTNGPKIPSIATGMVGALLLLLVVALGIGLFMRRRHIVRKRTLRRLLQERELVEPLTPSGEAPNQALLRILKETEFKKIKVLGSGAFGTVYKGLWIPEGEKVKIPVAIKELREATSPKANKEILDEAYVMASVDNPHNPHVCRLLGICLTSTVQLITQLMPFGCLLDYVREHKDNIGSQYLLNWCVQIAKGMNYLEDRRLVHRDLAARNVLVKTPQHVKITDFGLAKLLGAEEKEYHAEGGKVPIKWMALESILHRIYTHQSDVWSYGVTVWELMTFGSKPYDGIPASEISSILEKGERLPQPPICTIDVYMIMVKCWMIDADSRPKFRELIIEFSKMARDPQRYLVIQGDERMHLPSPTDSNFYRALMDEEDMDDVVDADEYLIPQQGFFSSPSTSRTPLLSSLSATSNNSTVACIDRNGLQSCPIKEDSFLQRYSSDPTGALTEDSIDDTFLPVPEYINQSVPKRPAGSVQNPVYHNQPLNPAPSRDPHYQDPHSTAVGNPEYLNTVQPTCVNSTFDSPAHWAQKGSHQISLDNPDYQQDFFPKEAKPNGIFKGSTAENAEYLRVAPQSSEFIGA
T2 sequence (P00533 with tags, fused parts or gaps INS769ASV): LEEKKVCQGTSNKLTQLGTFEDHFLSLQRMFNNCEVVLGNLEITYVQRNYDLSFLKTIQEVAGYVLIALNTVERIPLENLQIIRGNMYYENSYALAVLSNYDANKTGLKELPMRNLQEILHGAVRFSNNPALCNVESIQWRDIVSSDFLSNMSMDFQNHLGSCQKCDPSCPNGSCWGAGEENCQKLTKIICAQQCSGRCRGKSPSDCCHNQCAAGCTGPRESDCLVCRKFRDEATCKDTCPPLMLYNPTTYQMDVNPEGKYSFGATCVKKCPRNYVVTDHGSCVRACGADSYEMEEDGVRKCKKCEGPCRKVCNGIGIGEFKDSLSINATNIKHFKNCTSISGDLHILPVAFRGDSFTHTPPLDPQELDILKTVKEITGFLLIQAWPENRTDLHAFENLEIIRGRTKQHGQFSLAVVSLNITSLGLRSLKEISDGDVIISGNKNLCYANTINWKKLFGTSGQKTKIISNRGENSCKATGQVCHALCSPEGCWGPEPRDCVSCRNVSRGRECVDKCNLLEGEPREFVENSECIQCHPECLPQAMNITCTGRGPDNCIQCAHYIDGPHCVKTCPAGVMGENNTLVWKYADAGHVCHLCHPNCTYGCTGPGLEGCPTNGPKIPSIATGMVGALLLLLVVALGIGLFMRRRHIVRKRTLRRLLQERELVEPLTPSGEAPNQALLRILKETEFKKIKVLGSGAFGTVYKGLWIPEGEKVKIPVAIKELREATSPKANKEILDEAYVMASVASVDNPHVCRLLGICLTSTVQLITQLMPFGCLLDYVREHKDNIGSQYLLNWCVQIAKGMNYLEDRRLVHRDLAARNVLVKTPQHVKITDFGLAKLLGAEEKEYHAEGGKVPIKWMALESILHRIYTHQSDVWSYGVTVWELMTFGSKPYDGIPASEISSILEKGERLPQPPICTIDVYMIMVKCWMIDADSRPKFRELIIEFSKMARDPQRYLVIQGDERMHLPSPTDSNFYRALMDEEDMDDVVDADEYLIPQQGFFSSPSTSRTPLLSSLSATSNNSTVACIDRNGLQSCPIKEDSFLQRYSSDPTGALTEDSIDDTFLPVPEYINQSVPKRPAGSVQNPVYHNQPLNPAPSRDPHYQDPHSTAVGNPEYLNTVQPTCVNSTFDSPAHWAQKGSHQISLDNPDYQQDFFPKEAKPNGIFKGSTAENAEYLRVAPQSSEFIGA
T3 sequence (P04626 with tags, fused parts or gaps INS775YVMA): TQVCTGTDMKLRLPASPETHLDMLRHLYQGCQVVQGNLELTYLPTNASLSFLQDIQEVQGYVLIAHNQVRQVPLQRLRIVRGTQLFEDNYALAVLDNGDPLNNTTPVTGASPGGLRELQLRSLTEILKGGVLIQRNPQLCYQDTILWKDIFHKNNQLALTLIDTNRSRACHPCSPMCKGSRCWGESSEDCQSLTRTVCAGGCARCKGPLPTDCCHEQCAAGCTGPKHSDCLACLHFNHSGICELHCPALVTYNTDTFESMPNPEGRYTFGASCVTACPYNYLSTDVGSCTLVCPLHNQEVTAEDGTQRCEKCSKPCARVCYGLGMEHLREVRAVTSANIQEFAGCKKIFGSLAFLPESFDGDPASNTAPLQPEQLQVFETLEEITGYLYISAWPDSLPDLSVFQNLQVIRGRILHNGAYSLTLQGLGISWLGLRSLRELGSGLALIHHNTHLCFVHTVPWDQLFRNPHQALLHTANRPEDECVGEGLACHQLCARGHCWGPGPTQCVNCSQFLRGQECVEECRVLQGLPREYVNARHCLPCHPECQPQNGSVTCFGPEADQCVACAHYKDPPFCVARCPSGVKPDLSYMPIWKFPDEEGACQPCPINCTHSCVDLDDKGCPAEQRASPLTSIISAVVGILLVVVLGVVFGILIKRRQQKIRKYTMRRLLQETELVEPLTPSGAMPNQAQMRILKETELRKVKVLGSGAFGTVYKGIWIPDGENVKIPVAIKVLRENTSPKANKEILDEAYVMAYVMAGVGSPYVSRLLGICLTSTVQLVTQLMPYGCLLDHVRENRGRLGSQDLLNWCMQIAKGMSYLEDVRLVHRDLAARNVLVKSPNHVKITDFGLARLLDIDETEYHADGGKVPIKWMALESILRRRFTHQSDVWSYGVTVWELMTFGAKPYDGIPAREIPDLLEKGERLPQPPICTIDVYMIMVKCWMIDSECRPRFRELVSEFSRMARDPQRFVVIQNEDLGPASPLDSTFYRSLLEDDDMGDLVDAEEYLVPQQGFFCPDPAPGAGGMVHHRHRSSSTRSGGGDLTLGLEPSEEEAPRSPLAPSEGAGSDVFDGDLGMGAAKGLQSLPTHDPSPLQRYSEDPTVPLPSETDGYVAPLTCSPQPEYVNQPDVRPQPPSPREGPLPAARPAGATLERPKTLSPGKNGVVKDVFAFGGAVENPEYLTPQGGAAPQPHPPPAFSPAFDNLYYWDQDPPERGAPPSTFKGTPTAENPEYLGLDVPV

C=CC(=O)Nc1cc(Nc2nccc(Nc3cc(Cl)c(F)cc3C(C)(C)O)n2)c(OC)cc1N1CC[C@@H](N(C)C)C1 [Compound 52, (R)-N-(5-(4-(5-chloro-4-fluoro-2-(2-hydroxypropan-2-yl)phenylamino)pyrimidin-2-ylamino)-2-(3-(dimethylamino)pyrrolidin-1-yl)-4-methoxyphenyl)a crylamide]
Best Objective Response Rate, PD (progressive disease) [1, 10]: 1 (33.3) n(%)
Best Objective Response Rate, PR [1, 10]: 0 (0.0) n(%)
Best Objective Response Rate, PR, confirmed [1, 10]: 0 (0.0) n(%)
Best Objective Response Rate, PR, pending confirmation [1, 10]: 0 (0.0) n(%)
Best Objective Response Rate, SD (stable disease) [1, 10]: 2 (66.7) n(%)
Best Objective Response Rate, PD (progressive disease) [1, 11]: 0 (0.0) n(%)
Best Objective Response Rate, PR [1, 11]: 1 (50.0) n(%)
Best Objective Response Rate, PR, confirmed [1, 11]: 1 (50.0) n(%)
Best Objective Response Rate, PR, pending confirmation [1, 11]: 0 (0.0) n(%)
Best Objective Response Rate, SD (stable disease) [1, 11]: 1 (50.0) n(%)
Best Objective Response Rate, PD (progressive disease) [1, 12]: 3 (14.3) n(%)
Best Objective Response Rate, PR [1, 12]: 10 (47.6) n(%)
Best Objective Response Rate, PR, confirmed [1, 12]: 7 (33.3) n(%)
Best Objective Response Rate, PR, pending confirmation [1, 12]: 2 (9.5)* n(%)
Best Objective Response Rate, SD (stable disease) [1, 12]: 9 (42.9) n(%)
Best Objective Response Rate, PD (progressive disease) [1, 13]: 9 (10.7) n(%)
Best Objective Response Rate, PR, confirmed [1, 13]: 32 (38.1) n(%)
Best Objective Response Rate, PR, pending confirmation [1, 13]: 8 (9.5)* n(%)
Best Objective Response Rate, SD (stable disease) [1, 13]: 35 (41.7) n(%)
best Overall Response Rate (ORR) ([1]; 300 mg once daily, 44/84 patients, post platinum-based chemotherapy): 52.4%
Best Objective Response Rate, PD (progressive disease) [1, 14]: 2 (22.2) n(%)
Best Objective Response Rate, PR [1, 14]: 2 (22.2) n(%)
Best Objective Response Rate, PR, confirmed [1, 14]: 2 (22.2) n(%)
Best Objective Response Rate, PR, pending confirmation [1, 14]: 0 (0.0) n(%)
Best Objective Response Rate, SD (stable disease) [1, 14]: 5 (55.6) n(%)
Best Objective Response Rate, PD (progressive disease) [1, 15]: 15 (12.6) n(%)
Best Objective Response Rate, PR [1, 15]: 57 (47.9) n(%)
Best Objective Response Rate, PR, confirmed [1, 15]: 42 (35.3) n(%)
Best Objective Response Rate, PR, pending confirmation [1, 15]: 10 (8.4)* n(%)
Best Objective Response Rate, SD (stable disease) [1, 15]: 52 (43.7) n(%)
ORR for patients with baseline brain metastasis ([1]; across studies, 11/25 patients): 44%
first response observed after treatment ([1]; single patient, stage IV NSCLC with CNS metastasis, 300 mg once daily): 6 weeks
GI50 (Ri-1 cells): 51.3 nM
patients with PD [2, 16]: 1
patients with SD [2, 16]: 1
patients with PD [2, 17]: 1
patients with SD [2, 17]: 2
patients with best response of PR [2, 17]: 1
patients with best response of partial response (PR) [2, 18]: 2
patients with progressive disease (PD) [2, 18]: 2
IC50 (EGFR L858R&T790M): 1.1 nM
GI50 (Ba/F3 EGFR ASV ins cells): 83.2 nM
anti-tumor activity in earlier clinical studies [3]: Significant anti-tumor activities
GI50 [4]: 101 nM
GI50 [5]: 3.3 nM
IC50 [6]: 20.4 nM
IC50 [7]: 7.5 nM
GI50 (WT EGFR cell line A-431): 47.1 nM
IC50 [8]: 20.4 nM
GI50 (OCI-LY-10 cells): 3.2 nM
hepatocyte CLint at 1 µM [9]: 3.29 µL/min/1e6 cells
IC50 (BTK): 2.9 nM
GI50 (DB cells): 1980 nM
